Drawing on patent publication US20220274967A1, “BCAT MODULATION” (Icagen, LLC, priority 2019, published 2022), this text covers IC50 for 41 compounds.

Bounds are passed on as bounds.

One assay has as its target T1, BCAT2 (Homo sapiens, UniProt O15382).
T1 sequence (O15382 28-392): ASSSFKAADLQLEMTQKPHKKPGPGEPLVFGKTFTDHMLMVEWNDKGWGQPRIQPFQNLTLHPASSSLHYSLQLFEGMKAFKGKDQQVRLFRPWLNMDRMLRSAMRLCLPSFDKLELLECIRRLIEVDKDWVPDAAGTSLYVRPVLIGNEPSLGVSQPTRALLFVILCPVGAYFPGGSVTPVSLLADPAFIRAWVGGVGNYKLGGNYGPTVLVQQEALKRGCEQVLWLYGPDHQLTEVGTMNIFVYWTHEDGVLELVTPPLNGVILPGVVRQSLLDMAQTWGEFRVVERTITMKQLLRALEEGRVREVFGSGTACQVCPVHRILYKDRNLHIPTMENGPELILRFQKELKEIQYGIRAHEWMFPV
Nature of the assay: BCAT2 enzyme inhibition (human). In kind it is biochemical. How it is done: In further embodiments, the functional modulation of BCAT2 is assayed using a cell-free assay. In various embodiments, the cell-free assay is an enzyme-coupled fluorescent assay. For example, the disclosure contemplates use of an assay that monitors the production of L-glutamate from branch-chain amino acids and α-ketoglutarate through the coupling of hBCATm activity to two additional enzymes, L-Glutamate Oxidase (L-GOx) and Horseradish Peroxidase (HRP). Specifically, L-GOx catabolizes L-glutamate to generate α-ketoglutarate and […], the latter being utilized by HRP and leading to the formation of fluorescent resorufin from the redox-sensitive dye Amplex Red. In some embodiments, the test compound is classified as a candidate compound if a decrease in L-glutamate is measured. In further embodiments, the test compound is classified as a candidate compound if a decrease in α-ketoglutarate is measured.

Another assay has as its system GM00371 cells. In words: Viability assay (Cell titer glo) in the 3-HIB assay. In kind it is cell-based, human. The following applies: Homo sapiens, 24 h, read-out: 3HIB INHIBITION IC50 (μM) MEAN GM00371 cells Viablility Assay. How it is done: Cell Plating: Cells (Coriell Institute GM00371 cells) were plated (96-well clear bottom sterile plate; Greiner 655098) at 10,000 cells/0.1 mL in Eagle's minimum essential medium (EMEM)/15% FBS (Gibco 16000-044) with a Combi dispenser in a cell culture hood and incubated at 37° C. and 5% CO2 overnight.
Compound Dilution: Compound were prepared as 33.3× intermediate dilution in DMSO in 96 well round polystyrene plates. For 30 μM final maximum start with 30 μL of 10 mM in DMSO. 10-12 1:3 serial dilutions were prepared from left to right (20 μL+40 μL DMSO). A 10× secondary dilution was prepare in EMEM by taking 7.5 μL 33.3× and transfer to replicate 96 well round polystyrene plates and then adding 242.5 μL EMEM A 1× final dilution in EMEM was prepared by taking 50 μL 10× dilution and transferring to replicate 96 well polypropylene assay block (Costar 3956) and adding 450 μL EMEM A control was prepared for maximal compound inhibition by taking 20 μL 10 mM Reference Compound A and adding 40 μL DMSO for a concentration of 3.3 mM To 7.5 μL of the 3.3 mM Reference Compound A solution and added 242.5 μL EMEM to make a 100 μM solution. The subsequent Reference Compound A solution was diluted with EMEM to achieve a final concentration of 10 μM. The structure of Reference Compound A is:
A control was prepared for maximal compound toxicity by taking 7.5 μL Reference Compound B and 242.5 μL EMEM to make […]. 50 μL of that 100 μM Reference Compound B solution was combined with 450 μL EMEM to achieve a concentration of 30 μM. The structure of Reference Compound B is
Compound Treatment: Media was aspirated from the cells and 100 μL of D-PBS (ThermoFisher 14190144) was added and then removed. 100 μL of diluted compound was added to the cells in the place and the cells were incubated at 37° C. and 5% CO2 for 24 hours.
Viability Assay: To the cells remaining in the plate 25 μL D-PBS and 25 μL Cell titer glo reagent (Promega G7572). The plate was placed on a shaker for 2 minutes, incubated at room temperature in the dark and then read on a Clariostar microplate reader.
For orientation: ATP-based viability assays read luminescence as a measure of living cells.

For the compound `CNC(=O)c1ccc2c(C3CCCC(NC(=O)c4ccc(-c5ccccc5)s4)C3)c(-c3ccccc3)[nH]c2c1` (stereo not shown) [Compound 304], the values for the IC50 against BCAT2 and in the assay on GM00371 cells were over 1 µM and at least 1 µM, respectively.

Regarding `CNC(=O)c1ccc2c(c1)nc(-c1ccc(C)cc1)n2[C@H]1CCC[C@@H](NC(=O)c2ccc(Br)s2)C1` [Compound 170], on BCAT2, the IC50 lay in the range of 0.5 to 1 µM.

For `CNC(=O)c1cc2nc(-c3ccccn3)n([C@H]3CCC[C@@H](NC(=O)c4ccc(Cl)s4)C3)c2cc1OC` [Compound 214], the IC50 was under 0.1 µM against BCAT2 and 0.1 to 0.5 µM with GM00371 cells.

For `CNC(=O)c1ccc2c(c1)nc(-c1ccccn1)n2[C@H]1CC[C@@H](NC(=O)c2ccc(Br)s2)C1` [Compound 132], the concentration for half-maximal inhibition (IC50) on BCAT2 was 0.1 to 0.5 µM; in the assay with GM00371 cells, at least 1 µM.

In the case of `COC(=O)c1ccc2c(c1)nc(-c1ccccn1)n2[C@@H]1CCC[C@H](NC(=O)c2cccs2)C1` [Compound 117], the IC50 against BCAT2 was over 1 µM; with GM00371 cells, at least 1 µM.

The compound `CNC(=O)c1ccc2c(c1)nc(-c1ccccn1)n2[C@@H]1CCC[C@H](NC(=O)c2ccc(Br)cc2)C1` [Compound 114] showed an IC50 against BCAT2 of 0.1 to 0.5 µM.

For `CNC(=O)c1cc2nc(-c3sccc3C)n([C@H]3CCC[C@@H](NC(=O)c4ccc(Br)s4)C3)c2cc1F` [Compound 210], the 50% inhibitory concentration (IC50) on BCAT2 was under 0.1 µM; in the assay with GM00371 cells, at least 1 µM.

In the case of `CNC(=O)c1ccc2c(c1)nc(-c1ccccn1)n2[C@@H]1CCC[C@H](NC(=O)c2coc(Br)n2)C1` [Compound 120], the values for the IC50 at BCAT2 and in the assay on GM00371 cells were over 1 µM and at least 1 µM, respectively.

`C=CC(=O)Nc1ccc(C(=O)N[C@H]2CCC[C@@H](n3c(-c4ccccn4)nc4cc(C(=O)NC)ccc43)C2)s1` [Compound 110]: the half-maximal inhibitory concentration (IC50) is over 1 µM against BCAT2 and at least 1 µM in the assay with GM00371 cells.

On to `CNC(=O)c1ccc2c(c1)nc(-c1csc3c1CCCC3)n2[C@H]1CCC[C@@H](NC(=O)c2ccc(Br)s2)C1` [Compound 168], for which, on BCAT2, the IC50 lay within 0.5 to 1 µM.

For the compound `CNC(=O)c1cc2nc(-c3ccccn3)n([C@H]3CCC[C@@H](NC(=O)c4ccc(Br)s4)C3)c2cc1OC` [Compound 211], the values for the IC50 against BCAT2 and with GM00371 cells were under 0.1 µM and 0.1 to 0.5 µM, respectively.

For `CNC(=O)c1ccc2c(c1)nc(-c1ccccn1)n2C1CCCC(NC(=O)c2ccc(C3CC3)s2)C1` (stereo not shown) [Compound 144], the IC50 on BCAT2 was 0.5 to 1 µM; in the assay on GM00371 cells it was at least 1 µM.

With `C=CC(=O)NCc1ccc(C(=O)N[C@H]2CCC[C@@H](n3c(-c4ccccn4)nc4cc(C(=O)NC)ccc43)C2)s1` [Compound 108], the values for the concentration for half-maximal inhibition (IC50) against BCAT2 and in the assay with GM00371 cells were over 1 µM and at least 1 µM, respectively.

For `CNC(=O)c1ccc2c(c1)nc(-c1ccccn1)n2[C@@H]1CCC[C@H](NC(=O)c2ccccc2)C1` [Compound 115], the IC50 at BCAT2 was over 1 µM; in the assay with GM00371 cells, at least 1 µM.

As for `CNC(=O)c1cc2nc(-c3ccccc3)n([C@H]3CCC[C@@H](NC(=O)c4ccc(Br)s4)C3)c2cn1` [Compound 297], the IC50 on BCAT2 was under 0.1 µM; in the assay with GM00371 cells it was 0.1 to 0.5 µM.

As for `CNC(=O)c1ccc2c(c1)nc(-c1ccccc1NC(C)=O)n2[C@H]1CCC[C@@H](NC(=O)c2ccc(C#N)s2)C1` [Compound 130], the IC50 against BCAT2 was in the range of 0.5 to 1 µM.

In the case of `CNC(=O)c1ccc2c(c1)nc(-c1ncccc1OC)n2[C@H]1CCC[C@@H](NC(=O)c2ccc(Br)s2)C1` [Compound 150], on BCAT2, the half-inhibitory concentration (IC50) was over 1 µM.

With `CNC(=O)c1ccc2c(c1)nc(-c1ccccc1N1CCOCC1)n2[C@H]1CCC[C@@H](NC(=O)c2ccc(Br)s2)C1` [Compound 159], on BCAT2, the half-maximal inhibitory concentration (IC50) lay in the range of 0.1 to 0.5 µM.

`CNC(=O)c1ccc2c(c1)nc(-c1ccc(O)cn1)n2[C@H]1CCC[C@@H](NC(=O)c2ccc(Br)s2)C1` [Compound 186] displayed an IC50 against BCAT2 of 0.1 to 0.5 µM.

As to `CNC(=O)c1ccc2c(c1)nc(-c1ccc(C)cn1)n2[C@H]1CCC[C@@H](NC(=O)c2ccc(Br)s2)C1` [Compound 153], the IC50 against BCAT2 is 0.5 to 1 µM.

In turn, `CNC(=O)c1ccc2c(c1)nc(-c1cccc(C)n1)n2[C@H]1CCC[C@@H](NC(=O)c2ccc(Br)s2)C1` [Compound 148] registered an IC50 on BCAT2 of under 0.1 µM.

`CNC(=O)c1ccc2c(C3CCCC(NC(=O)c4cccs4)C3)c(-c3ccccc3)[nH]c2c1` (stereo not shown) [Compound 290]: the IC50 against BCAT2 is over 1 µM; in the assay with GM00371 cells, at least 1 µM.

As for `CNC(=O)c1ccc2c(c1)nc(-c1ccccc1C(N)=O)n2[C@H]1CCC[C@@H](NC(=O)c2ccc(C#N)s2)C1` [Compound 142], the 50% inhibitory concentration (IC50) is under 0.1 µM at BCAT2 and at least 1 µM with GM00371 cells.

For the compound `CNC(=O)c1ccc2c(n1)nc(-c1ccccn1)n2[C@@H]1CCC[C@H](NC(=O)c2ccc(Br)s2)C1` [Compound 305], the IC50 on BCAT2 was over 1 µM.

`CNC(=O)c1ccc2c(c1)nc(-c1cc(Cl)ccc1O)n2[C@H]1CCC[C@@H](NC(=O)c2ccc(C#N)s2)C1` [Compound 179] registered an IC50 at BCAT2 of 0.1 to 0.5 µM.

As for `CNC(=O)c1ccc2c(c1)nc(-c1cccc(C#N)c1)n2[C@H]1CCC[C@@H](NC(=O)c2ccc(Br)s2)C1` [Compound 165], the IC50 against BCAT2 is over 1 µM.

On BCAT2, `CNC(=O)c1ccc2c(c1)nc(-c1cc(Cl)cc(C)c1O)n2[C@H]1CCC[C@@H](NC(=O)c2ccc(Br)s2)C1` [Compound 182] gave a half-maximal inhibitory concentration (IC50) of over 1 µM.

`COC(=O)c1ccc2c(n1)nc(-c1ccccn1)n2[C@H]1CCC[C@@H](NC(=O)c2cccs2)C1` [Compound 300]: the IC50 at BCAT2 is over 1 µM.

In the case of `CNC(=O)c1ccc2c(c1)nc(-c1ccc(C#N)cc1)n2[C@H]1CCC[C@@H](NC(=O)c2ccc(Br)s2)C1` [Compound 162], at BCAT2, the IC50 is over 1 µM.

`CNC(=O)c1ccc2c(c1)nc(-c1ccccn1)n2[C@@H]1CCC[C@H](NC(=O)c2ccc(Br)o2)C1` [Compound 125]: the 50% inhibitory concentration (IC50) against BCAT2 is over 1 µM.

On to `COC(=O)c1ccc2c(n1)nc(-c1ccccn1)n2[C@@H]1CCC[C@H](NC(=O)c2ccc(Br)s2)C1` [Compound 301], for which the IC50 against BCAT2 was 0.1 to 0.5 µM.

With `CNC(=O)c1ccc2c(c1)nc(-c1ccc(Cl)cc1)n2[C@H]1CCC[C@@H](NC(=O)c2ccc(Br)s2)C1` [Compound 164], the half-inhibitory concentration (IC50) against BCAT2 fell in the range of 0.1 to 0.5 µM.

Compound `CNC(=O)c1ccc2c(c1)nc(-c1cc(Cl)ccc1O)n2[C@H]1CCC[C@@H](NC(=O)c2ccc(Cl)s2)C1` [Compound 190] displayed an IC50 at BCAT2 of 0.1 to 0.5 µM.

`CNC(=O)c1ccc2c(c1)nc(-c1ccc(OC)c(OC)c1)n2[C@H]1CCC[C@@H](NC(=O)c2ccc(Br)s2)C1` [Compound 158] gave an IC50 against BCAT2 of over 1 µM.

Consider `CNC(=O)c1ccc2c([C@H]3CCC[C@H](NC(=O)c4ccc(-c5ccccc5)s4)C3)c(-c3ccccc3)[nH]c2c1` [Compound 282], for which, at BCAT2, the IC50 was over 1 µM.

The compound `CNC(=O)c1ccc2c(c1)nc(-c1ccc3c(c1)OC(F)(F)O3)n2[C@H]1CCC[C@@H](NC(=O)c2ccc(Br)s2)C1` [Compound 160] registered a half-maximal inhibitory concentration (IC50) on BCAT2 of over 1 µM.

In the case of `C#Cc1cccc(-c2nc3cc(C(=O)NC)ccc3n2[C@H]2CCC[C@@H](NC(=O)c3ccc(Br)s3)C2)c1` [Compound 167], at BCAT2, the IC50 is over 1 µM.

The compound `CNC(=O)c1ccc2c(c1)nc(-c1ccc(C)s1)n2[C@H]1CCC[C@@H](NC(=O)c2ccc(Br)s2)C1` [Compound 171] yielded a half-maximal inhibitory concentration (IC50) against BCAT2 of 0.1 to 0.5 µM.

On BCAT2, `CNC(=O)c1ccc2c(c1)nc(-c1ccc(O)cn1)n2[C@H]1CCC[C@@H](NC(=O)c2ccc(Cl)s2)C1` [Compound 191] had an IC50 of over 1 µM.

Turning to `O=C(N[C@H]1CCC[C@@H](n2c(-c3ccccn3)nc3cc(CO)ccc32)C1)c1ccc(Br)s1` [Compound 119], the IC50 against BCAT2 was in the range of 0.1 to 0.5 µM.

`CNC(=O)c1ccc2c(c1)nc(-c1ccc(C#N)c(Cl)n1)n2[C@H]1CCC[C@@H](NC(=O)c2ccc(C#N)s2)C1` [Compound 187] displayed an IC50 at BCAT2 of over 1 µM.

In general, IC50 refers to the concentration that inhibits the measured activity by half.
